Read-outs that look alike come from different tables or passages of the source.

27 molecules from patent US9815796B2 (Merck Sharp & Dohme Corp., priority 2013, dated 2017) can be followed below.

The target of one experiment is Rhesus PDE2A3 (Macaca mulatta, UniProt B3VTJ2). Kind of experiment: PDE2 fluorescence polarization (IMAP FP) inhibition assay, rhesus enzyme. The experiment is classed as biochemical, rhesus macaque. An outline of the steps: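 Rhesus PDE2A3 came from lysate of transiently transfected AD293 cells, diluted to give 20% substrate conversion. Substrate was 50 nM FAM-cAMP with 1 uM cGMP activator in Tris pH 7.2/MgCl2 buffer, run 60 min at room temperature over 10-point 3-fold dilutions in 1% DMSO. Read-out was IMAP fluorescence polarization (mP) after ≥1 h binding.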
In general terms: In fluorescence polarisation assays a small probe gives low polarisation when free and higher when bound to something large.

The next experiment addresses human PDE2A1 (Homo sapiens (Human), UniProt O00408). Kind of experiment: IMAP FP PDE selectivity panel, human PDE2A1. The class given is biochemical. In short, it runs like this:
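GST-tagged human PDE2A1 expressed in insect cells, run at room temperature for 60 min with 50 nM FAM-cAMP containing 1000 nM cGMP, pH 7.2 Tris/MgCl2 buffer. IMAP fluorescence polarization read after binding step.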

Where [1] appears, read: Rhesus PDE2, Lab B, read-out: Rhesus PDE2 Ki (nM) - Lab B.
Where [2] appears, read: Human PDE2, Lab B, read-out: Human PDE2 Ki (nM) - Lab B.
Setting [3] is: Rhesus PDE2, Lab A, read-out: Rhesus PDE2 Ki (nM) - Lab A.
Where [4] appears, read: Human PDE2, Lab A, read-out: Human PDE2 Ki (nM) - Lab A.

human PDE2A1, sequence (O00408 other isoform, or with tags, fused parts or gaps): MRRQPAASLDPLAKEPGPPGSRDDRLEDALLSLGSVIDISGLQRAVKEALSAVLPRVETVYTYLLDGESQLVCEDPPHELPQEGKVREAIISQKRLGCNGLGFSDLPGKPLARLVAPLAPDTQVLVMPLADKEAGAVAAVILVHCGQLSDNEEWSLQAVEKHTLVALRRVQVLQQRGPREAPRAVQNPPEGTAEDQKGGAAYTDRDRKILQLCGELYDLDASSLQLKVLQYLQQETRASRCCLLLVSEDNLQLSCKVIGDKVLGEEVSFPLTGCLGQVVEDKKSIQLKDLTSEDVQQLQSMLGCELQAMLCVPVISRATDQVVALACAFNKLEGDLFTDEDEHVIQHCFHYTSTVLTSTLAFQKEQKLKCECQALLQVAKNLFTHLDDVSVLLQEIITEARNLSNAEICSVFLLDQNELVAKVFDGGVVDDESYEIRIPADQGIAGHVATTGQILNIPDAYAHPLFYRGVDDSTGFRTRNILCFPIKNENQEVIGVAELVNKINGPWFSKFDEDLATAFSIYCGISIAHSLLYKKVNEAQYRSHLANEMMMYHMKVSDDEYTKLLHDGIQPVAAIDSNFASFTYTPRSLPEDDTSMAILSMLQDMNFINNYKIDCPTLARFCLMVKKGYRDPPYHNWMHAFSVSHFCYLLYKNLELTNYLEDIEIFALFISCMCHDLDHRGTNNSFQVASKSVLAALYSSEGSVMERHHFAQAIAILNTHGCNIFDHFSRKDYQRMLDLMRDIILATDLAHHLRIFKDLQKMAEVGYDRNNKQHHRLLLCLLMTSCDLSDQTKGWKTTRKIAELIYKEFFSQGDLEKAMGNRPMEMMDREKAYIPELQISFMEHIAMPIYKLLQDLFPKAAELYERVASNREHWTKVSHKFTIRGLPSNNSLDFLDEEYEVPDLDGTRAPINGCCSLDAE
Rhesus PDE2A3, sequence (B3VTJ2 1-941): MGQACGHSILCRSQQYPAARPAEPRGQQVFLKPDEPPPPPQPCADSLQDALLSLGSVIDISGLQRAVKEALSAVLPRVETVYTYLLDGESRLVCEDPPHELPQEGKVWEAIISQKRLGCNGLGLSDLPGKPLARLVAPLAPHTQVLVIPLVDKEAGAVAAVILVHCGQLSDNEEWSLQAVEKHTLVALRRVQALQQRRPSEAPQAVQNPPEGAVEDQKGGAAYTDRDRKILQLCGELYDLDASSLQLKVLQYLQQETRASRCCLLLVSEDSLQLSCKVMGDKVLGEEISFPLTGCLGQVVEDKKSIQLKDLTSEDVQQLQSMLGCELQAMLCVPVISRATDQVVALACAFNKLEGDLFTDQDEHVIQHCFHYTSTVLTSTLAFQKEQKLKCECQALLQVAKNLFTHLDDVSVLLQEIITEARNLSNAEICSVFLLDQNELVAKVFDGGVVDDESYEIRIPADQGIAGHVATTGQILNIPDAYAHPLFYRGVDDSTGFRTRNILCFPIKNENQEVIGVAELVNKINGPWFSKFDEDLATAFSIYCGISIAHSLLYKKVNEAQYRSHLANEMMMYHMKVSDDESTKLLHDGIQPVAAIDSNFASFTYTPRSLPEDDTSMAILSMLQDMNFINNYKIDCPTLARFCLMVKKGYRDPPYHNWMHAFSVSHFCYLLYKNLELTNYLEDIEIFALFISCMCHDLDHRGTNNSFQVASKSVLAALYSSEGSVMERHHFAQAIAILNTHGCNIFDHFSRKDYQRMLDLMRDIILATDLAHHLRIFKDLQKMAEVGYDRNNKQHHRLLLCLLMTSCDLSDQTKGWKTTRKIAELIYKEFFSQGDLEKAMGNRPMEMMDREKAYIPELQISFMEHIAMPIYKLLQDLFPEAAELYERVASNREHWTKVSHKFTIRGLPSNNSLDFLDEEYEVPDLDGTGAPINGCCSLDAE

Take `O=C(N[C@@H](c1ccc(OC(F)F)cc1)C1CC1)c1cc(=O)[nH]c(C2CC2)n1` [Example 446, 2-cyclopropyl-N-{(R)-cyclopropyl[4-(difluoromethoxy)phenyl]methyl}-6-oxo-1,6-dihydropyrimidine-4-carboxamide]: the Ki at Rhesus PDE2A3 (setting [1]) was 43 nM; on human PDE2A1 (setting [2]), 42 nM.

`COc1cc(C(C)NC(=O)c2cc(=O)[nH]c(-c3ccccc3)n2)ccc1C(F)(F)F` (stereo not shown) [Example 155]: the values for the Ki on Rhesus PDE2A3 (setting [3]) and on human PDE2A1 (setting [4]) were 119 nM and 143 nM, respectively.

`CC(C)[C@@H](NC(=O)c1cc(=O)[nH]c(-c2ccccc2)n1)c1ccc(OC(F)(F)F)c(F)c1` [Example 127, N-{(1R)-1-[3-fluoro-4-(trifluoromethoxy)phenyl]-2-methylpropyl}-6-oxo-2-phenyl-1,6-dihydropyrimidine-4-carboxamide]: the inhibition constant Ki on Rhesus PDE2A3 (setting [3]) stood at 3.6 nM; on Rhesus PDE2A3 (setting [1]) it was 4.7 nM; on human PDE2A1 (setting [4]), 2.2 nM; at human PDE2A1 (setting [2]), 3.9 nM.

With `CC[C@@H](NC(=O)c1cc(=O)[nH]c(C(C)(C)c2ccc(OC)cc2)n1)c1ccc(SC(F)(F)F)cc1` [Example 495, 2-[1-(4-methoxyphenyl)-1-methylethyl]-6-oxo-N-[(1R)-1-{4-[(trifluoromethyl)sulfanyl]phenyl}propyl]-1,6-dihydropyrimidine-4-carboxamide], the Ki on Rhesus PDE2A3 (setting [1]) was found to be 54 nM; on human PDE2A1 (setting [2]) it was 45 nM.

`COc1ccc([C@@H](C)NC(=O)c2cc(=O)[nH]c(-c3ccccc3)n2)cc1` [Example 347, N-[(1R)-1-(4-methoxyphenyl)ethyl]-6-oxo-2-phenyl-1,6-dihydropyrimidine-4-carboxamide]: the results for the Ki on Rhesus PDE2A3 (setting [3]), at Rhesus PDE2A3 (setting [1]) and on human PDE2A1 (setting [2]) were 45 nM, 74 nM and 50 nM, respectively.

In the case of `COCc1nc(C(=O)N[C@H](C)c2ccc(OC(F)(F)F)cc2)cc(=O)[nH]1` [Example 113, 2-(methoxymethyl)-6-oxo-N-{(1R)-1-[4-(trifluoromethoxy)phenyl]ethyl}-1,6-dihydropyrimidine-4-carboxamide], the results for the Ki on Rhesus PDE2A3 (setting [3]) and on human PDE2A1 (setting [4]) were 84 nM and 16 nM, respectively.

For `O=C(NC1(c2ccc(SC(F)(F)F)cc2)CCC1)c1cc(=O)[nH]c(-c2ccccc2)n1` [Example 171, 6-oxo-2-phenyl-N-(1-{4-[(trifluoromethyl)sulfanyl]phenyl}cyclobutyl)-1,6-dihydropyrimidine-4-carboxamide], the figures for the inhibition constant (Ki) on Rhesus PDE2A3 (setting [3]) and on human PDE2A1 (setting [4]) were 28 nM and 32 nM, respectively.

As for `Cc1nc(C(=O)N[C@@H](c2ccc(OC(F)(F)F)c(F)c2)C(C)C)cc(=O)[nH]1` [Example 38, N-{(1R)-1-[3-fluoro-4-(trifluoromethoxy)phenyl]-2-methylpropyl}-2-methyl-6-oxo-1,6-dihydropyrimidine-4-carboxamide], the Ki at Rhesus PDE2A3 (setting [3]) stood at 7.8 nM; at human PDE2A1 (setting [4]), 5.6 nM.

Turning to `CC[C@@H](NC(=O)c1cc(=O)[nH]c(Cc2ccc(OC)cc2)n1)c1ccc(OC(F)(F)F)c(F)c1` [Example 484, N-{(1R)-1-[3-fluoro-4-(trifluoromethoxy)phenyl]propyl}-2-(4-methoxybenzyl)-6-oxo-1,6-dihydropyrimidine-4-carboxamide], the Ki at Rhesus PDE2A3 (setting [1]) is 1.3 nM; at human PDE2A1 (setting [2]), 1.4 nM.

With `Cc1nc(C(=O)NC2(c3ccc(C(F)(F)F)cc3)CC2)cc(=O)[nH]1` [Example 1, 2-Methyl-6-oxo-N-{1-[4-(trifluoromethyl)phenyl]cyclopropyl}-1,6-dihydropyrimidine-4-carboxamide], the inhibition constant (Ki) on Rhesus PDE2A3 (setting [3]) came to 21 nM; on Rhesus PDE2A3 (setting [1]), 28 nM; at human PDE2A1 (setting [4]) it was 16 nM; on human PDE2A1 (setting [2]) it was 36 nM.

In the case of `Cc1nc(C(=O)NC(C(=O)N(C)C)c2ccc(C(F)(F)F)cc2)cc(=O)[nH]1` (stereo not shown) [Example 329, N-{2-(dimethylamino)-2-oxo-1-[4-(trifluoromethyl)phenyl]ethyl}-2-methyl-6-oxo-1,6-dihydropyrimidine-4-carboxamide], the inhibition constant (Ki) at Rhesus PDE2A3 (setting [3]) is 1420 nM; on human PDE2A1 (setting [4]) it was 565 nM.

Regarding `C[C@@H](NC(=O)c1cc(=O)[nH]c(-c2ccccc2)n1)c1ccc(S(F)(F)(F)(F)F)cc1` [Example 401, 6-oxo-N-{(1R)-1-[4-(pentafluoro-λ^6-sulfanyl)phenyl]ethyl}-2-phenyl-1,6-dihydropyrimidine-4-carboxamide], the values for the Ki at Rhesus PDE2A3 (setting [1]) and on human PDE2A1 (setting [2]) were 5.2 nM and 5.8 nM, respectively.

For the molecule `Cc1cc([C@@H](C)NC(=O)c2cc(=O)[nH]c(C3CC3)n2)ccc1C(F)(F)F` [Example 231, 2-cyclopropyl-N-{(1R)-1-[3-methyl-4-(trifluoromethyl)phenyl]ethyl}-6-oxo-1,6-dihydropyrimidine-4-carboxamide], the Ki at Rhesus PDE2A3 (setting [3]) was 39 nM; on human PDE2A1 (setting [4]), 23 nM.

In the case of `COc1ccc(Cc2nc(C(=O)N[C@@H](c3ccc(S(F)(F)(F)(F)F)cc3)C3CC3)cc(=O)[nH]2)cc1` [Example 468, N-{(R)-cyclopropyl[4-(pentafluoro-λ^6-sulfanyl)phenyl]methyl}-2-(4-methoxybenzyl)-6-oxo-1,6-dihydropyrimidine-4-carboxamide], the inhibition constant (Ki) at Rhesus PDE2A3 (setting [1]) is 2.8 nM; on human PDE2A1 (setting [2]) it was 2.3 nM.

With `C[C@@H](NC(=O)c1cc(=O)[nH]c(-c2ncccn2)n1)c1ccc(SC(F)(F)F)c(F)c1` [Example 260, N-[(1R)-1-{3-fluoro-4-[(trifluoromethyl)sulfanyl]phenyl}ethyl]-6-oxo-1,6-dihydro-2,2′-bipyrimidine-4-carboxamide], the Ki amounted to 1 nM at Rhesus PDE2A3 (setting [3]), 1.8 nM on Rhesus PDE2A3 (setting [1]) and 1.8 nM on human PDE2A1 (setting [2]).

`Cc1nc(C(=O)N[C@H](C)c2ccc(C3(C)CC3)cc2)cc(=O)[nH]1` [Example 530, 2-methyl-N-{(1R)-1-[4-(1-methylcyclopropyl)phenyl]ethyl}-6-oxo-1,6-dihydropyrimidine-4-carboxamide]: the figures for the Ki at Rhesus PDE2A3 (setting [1]) and at human PDE2A1 (setting [2]) were 47 nM and 28 nM, respectively.

As to `CC[C@@H](NC(=O)c1cc(=O)[nH]c(C)n1)c1ccc(SC(F)(F)F)cc1` [Example 29, 2-methyl-6-oxo-N-[(1R)-1-{4-[(trifluoromethyl)sulfanyl]phenyl}propyl]-1,6-dihydropyrimidine-4-carboxamide], the Ki on Rhesus PDE2A3 (setting [3]) came to 9.2 nM; at human PDE2A1 (setting [4]) it was 4.9 nM.

Regarding `Cc1nc(C(=O)N[C@H](C)c2ccc(-c3cccc(F)c3)cc2)cc(=O)[nH]1` [Example 323, N-[(1R)-1-(3′-fluorobiphenyl-4-yl)ethyl]-2-methyl-6-oxo-1,6-dihydropyrimidine-4-carboxamide], the results for the inhibitory constant (Ki) at Rhesus PDE2A3 (setting [3]) and on human PDE2A1 (setting [4]) were 66 nM and 50 nM, respectively.

As for `CC(C)(NC(=O)c1cc(=O)[nH]c(C2CC2)n1)c1ccc(SC(F)(F)F)cc1` [Example 222, 2-cyclopropyl-N-(1-methyl-1-{4-[(trifluoromethyl)sulfanyl]phenyl}ethyl)-6-oxo-1,6-dihydropyrimidine-4-carboxamide], the Ki at Rhesus PDE2A3 (setting [3]) worked out at 89 nM; on human PDE2A1 (setting [4]), 45 nM.

With `O=C(NCc1ccc(-c2ccccc2)cc1)c1cc(=O)[nH]c(-c2ccccc2)n1` [Example 372, N-(biphenyl-4-ylmethyl)-6-oxo-2-phenyl-1,6-dihydropyrimidine-4-carboxamide], the Ki at Rhesus PDE2A3 (setting [3]) is ~149 nM; at human PDE2A1 (setting [2]) it was ~661 nM.

Turning to `Cc1nc(C(=O)NC(c2ccc(SC(F)(F)F)c(F)c2)C2(C)CC2)cc(=O)[nH]1` (single isomer, unassigned) [Example 702, (R)- or (S)-N-((3-fluoro-4-((trifluoromethyl)thio)phenyl)(1-methylcyclopropyl)methyl)-2-methyl-6-oxo-1,6-dihydropyrimidine-4-carboxamide], the Ki at Rhesus PDE2A3 (setting [1]) was determined as 8.7 nM; on human PDE2A1 (setting [2]) it was 7.2 nM.

Regarding `C[C@@H](NC(=O)c1cc(=O)[nH]c(-c2ccccc2)n1)c1ccc(SC(F)(F)F)cc1` [Example 142, 6-Oxo-2-phenyl-N-[(1R)-1-{4-[(trifluoromethyl)sulfanyl]phenyl}ethyl]-1,6-dihydropyrimidine-4-carboxamide], the Ki at Rhesus PDE2A3 (setting [3]) is 1.4 nM; on human PDE2A1 (setting [4]), 1.5 nM.

For `C[C@@H](NC(=O)c1cc(=O)[nH]c(-c2ccccc2)n1)c1cc(F)c(C(F)(F)F)c(F)c1` [Example 184, N-{(1R)-1-[3,5-difluoro-4-(trifluoromethyl)phenyl]ethyl}-6-oxo-2-phenyl-1,6-dihydropyrimidine-4-carboxamide], the inhibition constant (Ki) at Rhesus PDE2A3 (setting [3]) and on human PDE2A1 (setting [4]) was 20 nM in each case.

For the molecule `COc1ccc([C@@H](C)NC(=O)c2cc(=O)[nH]c(-c3ncccn3)n2)cc1` [Example 86, N-[(1R)-1-(4-methoxyphenyl)ethyl]-6-oxo-1,6-dihydro-2,2′-bipyrimidine-4-carboxamide], the Ki on Rhesus PDE2A3 (setting [3]) was 237 nM; at human PDE2A1 (setting [4]), 199 nM.

As for `Cc1nc(C(=O)N[C@@H](c2ccc(C3CC3)c(F)c2)C(C)C)cc(=O)[nH]1` [Example 621, N-[(1R)-1-(4-cyclopropyl-3-fluorophenyl)-2-methylpropyl]-2-methyl-6-oxo-1,6-dihydropyrimidine-4-carboxamide], the Ki on Rhesus PDE2A3 (setting [1]) amounted to 5.1 nM; on human PDE2A1 (setting [2]) it was 5.2 nM.

For `O=C(N[C@@H](c1ccc(OC(F)(F)F)cc1)C1CC1)c1cc(=O)[nH]c(-c2ncccn2)n1` [Example 92, N-{(R)-cyclopropyl[4-(trifluoromethoxy)phenyl]methyl}-6-oxo-1,6-dihydro-2,2′-bipyrimidine-4-carboxamide], the Ki on Rhesus PDE2A3 (setting [3]) worked out at 91 nM; on human PDE2A1 (setting [4]) it was 21 nM.

Regarding `CC(C)(C)[C@@H](NC(=O)c1cc(=O)[nH]c(C2CC2)n1)c1ccc(C(F)(F)F)cc1` [Example 262, 2-cyclopropyl-N-{(1R)-2,2-dimethyl-1-[4-(trifluoromethyl)phenyl]propyl}-6-oxo-1,6-dihydropyrimidine-4-carboxamide], the Ki is 0.65 nM at Rhesus PDE2A3 (setting [3]), 0.85 nM at Rhesus PDE2A3 (setting [1]) and 0.79 nM at human PDE2A1 (setting [2]).

As usually defined, the Ki is the equilibrium dissociation constant of an inhibitor or competing ligand from its target.
